In US20230085307A1, “PYRIDAZINONE COMPOUND AND HERBICIDE” (NISSAN CHEMICAL CORPORATION, priority 2019, published 2023):

Tests used:
[1] = tested on: green foxtail; experiment: Test Example 5: herbicidal effect by foliage application, plastic box (Table 20, symbol G); type: in vivo, green foxtail (Setaria viridis); details: foliage application, 320 g/ha, three weeks after application
Procedure, shortened: (§1)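 Sow seeds spot-wise in sterilized diluvial soil; cover with ~1.5 cm soil. Grow 14 days in greenhouse, 25° C. to 30° C. Spray foliage with emulsion diluted to predetermined amount. Rate effect after 3 weeks.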

[2] = tested on: chickweed; experiment: Test Example 5: herbicidal effect by foliage application, plastic box (Table 20, symbol P); type: in vivo, common chickweed (Stellaria media); details: foliage application, 320 g/ha, three weeks after application
Procedure, shortened: as §1

[3] = tested on: lambsquarters; experiment: Test Example 5: herbicidal effect by foliage application, plastic box (Table 20, symbol O); type: in vivo, lambsquarters (Chenopodium album); details: foliage application, 320 g/ha, three weeks after application
Procedure, shortened: as §1

[4] = tested on: windgrass; experiment: Test Example 4: herbicidal effect by soil treatment (Table 19, symbol L); type: in vivo, windgrass (Apera spica-venti); details: amount of applied herbicide 320 g/ha
Procedure, shortened: (§2)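 Soil-surface application: an emulsion agent diluted with water to the predetermined dose is sprayed uniformly over seeds lying under roughly 1.5 cm of sterilized diluvial soil. Boxes stay in a greenhouse at 25° C. to 30° C. Three weeks later, each species is graded on previously defined criteria.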

[5] = tested on: southern crabgrass; experiment: Test Example 4: herbicidal effect by soil treatment (Table 19, symbol F); type: in vivo, southern crabgrass (Digitaria ciliaris); details: amount of applied herbicide 320 g/ha
Procedure, shortened: as §2

[6] = tested on: persian speedwell; experiment: Test Example 5: herbicidal effect by foliage application, plastic box (Table 20, symbol R); type: in vivo, Persian speedwell (Veronica persica); details: foliage application, 320 g/ha, three weeks after application
Procedure, shortened: as §1

[7] = tested on: false cleavers; experiment: Test Example 4: herbicidal effect by soil treatment (Table 19, symbol Q); type: in vivo, false cleavers (Galium spurium); details: amount of applied herbicide 320 g/ha
Procedure, shortened: as §2

[8] = tested on: oval-leafed pondweed; experiment: Test Example 2: herbicidal activity, application during weed generation under submerged conditions (Table 17, symbol C); type: in vivo, oval-leafed pondweed (Monochoria vaginalis); details: AAH 320 g/ha; application during weed generation, submerged conditions
Procedure, shortened: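 3-wk visual-criteria score after one water-surface dose. Emulsion formulation, water-diluted to set rate; applied at 1–2 leaf stage; alluvial soil, 4 cm standing water; seeds co-sown; greenhouse 25–30° C.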

[9] = tested on: barnyard grass; experiment: Test Example 5: herbicidal effect by foliage application, plastic box (Table 20, symbol H); type: in vivo, barnyard grass (Echinochloa crus-galli); details: foliage application, 320 g/ha, three weeks after application
Procedure, shortened: as §1

[10] = tested on: Chinese sprangletop; experiment: Test Example 3: herbicidal effect by foliage application, Wagner pot (Table 18, symbol D); type: in vivo, chinese sprangletop (Leptochloa chinensis); details: for herbicidal effect on Chinese sprangletop (D): 320 g/ha; for herbicidal effect on D: Chinese sprangletop: amount of applied herbicide 320 g/ha
Procedure, shortened: (§3)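 Plants were sown in alluvial soil held under 0.1–0.5 cm standing water and grown 14 days in a greenhouse at 25–30 °C. An emulsifiable formulation, water-diluted to the set dose, was then sprayed onto the foliage, and effects were scored three weeks later using previously defined criteria.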

[11] = tested on: velvetleaf; experiment: Test Example 4: herbicidal effect by soil treatment (Table 19, symbol M); type: in vivo, velvetleaf (Abutilon theophrasti); details: amount of applied herbicide 320 g/ha
Procedure, shortened: as §2

[12] = tested on: southern crabgrass; experiment: Test Example 5: herbicidal effect by foliage application, plastic box (Table 20, symbol F); type: in vivo, southern crabgrass (Digitaria ciliaris); details: foliage application, 320 g/ha, three weeks after application
Procedure, shortened: as §1

[13] = tested on: windgrass; experiment: Test Example 5: herbicidal effect by foliage application, plastic box (Table 20, symbol L); type: in vivo, windgrass (Apera spica-venti); details: foliage application, 320 g/ha, three weeks after application
Procedure, shortened: as §1

[14] = tested on: oval-leafed pondweed; experiment: Test Example 1: herbicidal activity, application before weed generation under submerged conditions (Table 16, symbol C); type: in vivo, oval-leafed pondweed (Monochoria vaginalis); details: amount of applied herbicide 320 g/ha
Procedure, shortened: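 Emulsion formulation, water-diluted to set dose, was put onto the flooded surface (4 cm depth, alluvial soil) the same day weeds were sown and 2.5-leaf rice transplanted. After 3 weeks at 25-30 °C under glass, each species was rated 0 (≤5% kill) to 5 (≥90% kill).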

[15] = tested on: redroot pigweed; experiment: Test Example 4: herbicidal effect by soil treatment (Table 19, symbol N); type: in vivo, redroot pigweed (Amaranthus retroflexus); details: amount of applied herbicide 320 g/ha
Procedure, shortened: as §2

[16] = tested on: rice flat sedge; experiment: Test Example 3: herbicidal effect by foliage application, Wagner pot (Table 18, symbol E); type: in vivo, rice flat sedge (Cyperus iria); details: for herbicidal effect on rice flat sedge (E): 320 g/ha; for herbicidal effect on E: rice flat sedge: amount of applied herbicide 320 g/ha
Procedure, shortened: as §3

[17] = tested on: lambsquarters; experiment: Test Example 4: herbicidal effect by soil treatment (Table 19, symbol O); type: in vivo, lambsquarters (Chenopodium album); details: amount of applied herbicide 320 g/ha
Procedure, shortened: as §2

| SMILES | G: green foxtail, herbicidal effect grade [1] | P: chickweed, herbicidal effect grade [2] | O: lambsquarters, herbicidal effect grade [3] | L: windgrass, herbicidal effect grade [4] | F: southern crabgrass, herbicidal effect grade [5] | R: persian speedwell, herbicidal effect grade [6] | Q: false cleavers, herbicidal effect grade [7] | herbicidal effect rating, C: oval-leafed pondweed [8] | H: barnyard grass, herbicidal effect grade [9] | herbicidal effect on Chinese sprangletop (D) [10] | M: velvetleaf, herbicidal effect grade [11] | F: southern crabgrass, herbicidal effect grade [12] | L: windgrass, herbicidal effect grade [13] | Herbicidal effect, C: oval-leafed pondweed [14] | N: redroot pigweed, herbicidal effect grade [15] | herbicidal effect on rice flat sedge (E) [16] | O: lambsquarters, herbicidal effect grade [17] | herbicidal effect, L: windgrass [4] | herbicidal effect, F: southern crabgrass [5] | herbicidal effect, Q: false cleavers [7] | other results |
| --- | --- | --- | --- | --- | --- | --- | --- | --- | --- | --- | --- | --- | --- | --- | --- | --- | --- | --- | --- | --- | --- |
| CCOc1ccc2c(-c3c(O)c(C)nn(C)c3=O)c(-c3ccc(OC)cc3)sc2c1 [3-091] | 0 (Herbicidal rate of 5% or less (almost no effect)) | 5 (Herbicidal rate of 90% or more (almost completely withered)) | 5 (Herbicidal rate of 90% or more (almost completely withered)) | 0 (Herbicidal rate of 5% or less (almost no effect)) | 2 (Herbicidal rate of 20% or more and less than 40%) | 5 (Herbicidal rate of 90% or more (almost completely withered)) | 5 (Herbicidal rate of 90% or more (almost completely withered)) | 3 (Herbicidal rate of 40% or more and less than 70%) | 3 (Herbicidal rate of 40% or more and less than 70%) | 0 (Herbicidal rate of 5% or less (almost no effect)) | 0 (Herbicidal rate of 5% or less (almost no effect)) | 2 (Herbicidal rate of 20% or more and less than 40%) | 0 (Herbicidal rate of 5% or less (almost no effect)) | 4 (Herbicidal rate of 70% or more and less than 90%) | 3 (Herbicidal rate of 40% or more and less than 70%) | 4 (Herbicidal rate of 70% or more and less than 90%) | 5 (Herbicidal rate of 90% or more (almost completely withered)) |  |  |  |  |
| COc1cc(F)ccc1-c1sc2cc(F)ccc2c1-c1c(O)c(C)nn(C)c1=O [3-009] | 5 (Herbicidal rate of 90% or more (almost completely withered)) | 5 (Herbicidal rate of 90% or more (almost completely withered)) | 5 (Herbicidal rate of 90% or more (almost completely withered)) |  |  | 5 (Herbicidal rate of 90% or more (almost completely withered)) |  | 3 (Herbicidal rate of 40% or more and less than 70%) | 5 (Herbicidal rate of 90% or more (almost completely withered)) |  |  | 5 (Herbicidal rate of 90% or more (almost completely withered)) | 5 (Herbicidal rate of 90% or more (almost completely withered)) | 1 (Herbicidal rate of 5% or more and less than 20%) |  |  |  | 5 (Herbicidal rate of 90% or more (almost completely withered)) | 5 (Herbicidal rate of 90% or more (almost completely withered)) | 5 (Herbicidal rate of 90% or more (almost completely withered)) | herbicidal effect on D: Chinese sprangletop [10]: 5 (Herbicidal rate of 90% or more (almost completely withered)); herbicidal effect, M: velvetleaf [11]: 3 (Herbicidal rate of 40% or more and less than 70%); herbicidal effect, N: redroot pigweed [15]: 5 (Herbicidal rate of 90% or more (almost completely withered)); herbicidal effect on E: rice flat sedge [16]: 5 (Herbicidal rate of 90% or more (almost completely withered)); herbicidal effect, O: lambsquarters [17]: 5 (Herbicidal rate of 90% or more (almost completely withered)) |
| CCCC(=O)Oc1c(C)nn(C)c(=O)c1-c1c(-c2ccc(F)cc2OC)sc2cc(OC)ccc12 [3-077] | 5 (Herbicidal rate of 90% or more (almost completely withered)) | 5 (Herbicidal rate of 90% or more (almost completely withered)) | 4 (Herbicidal rate of 70% or more and less than 90%) | 3 (Herbicidal rate of 40% or more and less than 70%) | 0 (Herbicidal rate of 5% or less (almost no effect)) | 3 (Herbicidal rate of 40% or more and less than 70%) | 2 (Herbicidal rate of 20% or more and less than 40%) | 4 (Herbicidal rate of 70% or more and less than 90%) | 0 (Herbicidal rate of 5% or less (almost no effect)) | 1 (Herbicidal rate of 5% or more and less than 20%) | 0 (Herbicidal rate of 5% or less (almost no effect)) | 0 (Herbicidal rate of 5% or less (almost no effect)) | 4 (Herbicidal rate of 70% or more and less than 90%) | 5 (Herbicidal rate of 90% or more (almost completely withered)) | 5 (Herbicidal rate of 90% or more (almost completely withered)) | 5 (Herbicidal rate of 90% or more (almost completely withered)) | 4 (Herbicidal rate of 70% or more and less than 90%) |  |  |  |  |
| CCCC(=O)Oc1c(C)nn(C)c(=O)c1-c1c(-c2ccc(F)cc2OCC)sc2cc(F)ccc12 [3-012] | 4 (Herbicidal rate of 70% or more and less than 90%) | 5 (Herbicidal rate of 90% or more (almost completely withered)) | 4 (Herbicidal rate of 70% or more and less than 90%) |  |  | 5 (Herbicidal rate of 90% or more (almost completely withered)) |  | 4 (Herbicidal rate of 70% or more and less than 90%) | 5 (Herbicidal rate of 90% or more (almost completely withered)) |  |  | 5 (Herbicidal rate of 90% or more (almost completely withered)) | 5 (Herbicidal rate of 90% or more (almost completely withered)) | 4 (Herbicidal rate of 70% or more and less than 90%) |  |  |  | 5 (Herbicidal rate of 90% or more (almost completely withered)) | 3 (Herbicidal rate of 40% or more and less than 70%) | 5 (Herbicidal rate of 90% or more (almost completely withered)) | herbicidal effect on D: Chinese sprangletop [10]: 2 (Herbicidal rate of 20% or more and less than 40%); herbicidal effect, M: velvetleaf [11]: 0 (Herbicidal rate of 5% or less (almost no effect)); herbicidal effect, N: redroot pigweed [15]: 4 (Herbicidal rate of 70% or more and less than 90%); herbicidal effect on E: rice flat sedge [16]: 5 (Herbicidal rate of 90% or more (almost completely withered)); herbicidal effect, O: lambsquarters [17]: 3 (Herbicidal rate of 40% or more and less than 70%) |
| CCOc1ccc2c(-c3c(O)c(C)nn(C)c3=O)c(-c3ccc(F)cc3OCC)sc2c1 [3-095] | 3 (Herbicidal rate of 40% or more and less than 70%) | 5 (Herbicidal rate of 90% or more (almost completely withered)) | 5 (Herbicidal rate of 90% or more (almost completely withered)) | 4 (Herbicidal rate of 70% or more and less than 90%) | 4 (Herbicidal rate of 70% or more and less than 90%) | 5 (Herbicidal rate of 90% or more (almost completely withered)) | 4 (Herbicidal rate of 70% or more and less than 90%) | 5 (Herbicidal rate of 90% or more (almost completely withered)) | 5 (Herbicidal rate of 90% or more (almost completely withered)) | 5 (Herbicidal rate of 90% or more (almost completely withered)) | 3 (Herbicidal rate of 40% or more and less than 70%) | 5 (Herbicidal rate of 90% or more (almost completely withered)) | 5 (Herbicidal rate of 90% or more (almost completely withered)) | 5 (Herbicidal rate of 90% or more (almost completely withered)) | 5 (Herbicidal rate of 90% or more (almost completely withered)) | 5 (Herbicidal rate of 90% or more (almost completely withered)) | 5 (Herbicidal rate of 90% or more (almost completely withered)) |  |  |  |  |
